The record followed here is publication PMC9706280 (Journal of Pesticide Science, 2022).

The target in the test is succinate dehydrogenase (SDH) (Botrytis cinerea, UniProt A0A384J5E4+A0A384J8V8+A0A384JHJ5). The test is described as follows: SDH assay kit on B. cinerea mitochondrial suspension, absorbance at […] nm. The test is classed as biochemical. Conditions: read-out: IC50 / μM.

The structures appear in SMILES notation.

Chain of succinate dehydrogenase (SDH) (A0A384J5E4 31-300): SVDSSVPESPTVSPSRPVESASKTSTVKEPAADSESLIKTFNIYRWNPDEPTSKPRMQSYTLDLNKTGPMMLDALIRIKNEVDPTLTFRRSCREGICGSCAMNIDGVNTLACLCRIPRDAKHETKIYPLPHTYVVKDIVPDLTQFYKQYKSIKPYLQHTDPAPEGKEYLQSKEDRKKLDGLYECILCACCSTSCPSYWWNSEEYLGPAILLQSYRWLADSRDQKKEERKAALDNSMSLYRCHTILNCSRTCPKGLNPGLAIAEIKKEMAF
Chain of succinate dehydrogenase (SDH) (A0A384J8V8 41-189): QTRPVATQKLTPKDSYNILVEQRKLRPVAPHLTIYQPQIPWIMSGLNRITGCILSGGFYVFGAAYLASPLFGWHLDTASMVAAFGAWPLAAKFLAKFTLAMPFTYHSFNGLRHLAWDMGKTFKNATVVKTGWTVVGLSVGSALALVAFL
Chain of succinate dehydrogenase (SDH) (A0A384JHJ5 55-192): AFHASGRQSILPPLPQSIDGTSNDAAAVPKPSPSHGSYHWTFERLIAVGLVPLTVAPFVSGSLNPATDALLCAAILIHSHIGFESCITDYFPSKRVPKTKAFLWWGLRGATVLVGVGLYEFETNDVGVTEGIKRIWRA
Chain of succinate dehydrogenase (SDH) (A0A384K456 41-647 partner): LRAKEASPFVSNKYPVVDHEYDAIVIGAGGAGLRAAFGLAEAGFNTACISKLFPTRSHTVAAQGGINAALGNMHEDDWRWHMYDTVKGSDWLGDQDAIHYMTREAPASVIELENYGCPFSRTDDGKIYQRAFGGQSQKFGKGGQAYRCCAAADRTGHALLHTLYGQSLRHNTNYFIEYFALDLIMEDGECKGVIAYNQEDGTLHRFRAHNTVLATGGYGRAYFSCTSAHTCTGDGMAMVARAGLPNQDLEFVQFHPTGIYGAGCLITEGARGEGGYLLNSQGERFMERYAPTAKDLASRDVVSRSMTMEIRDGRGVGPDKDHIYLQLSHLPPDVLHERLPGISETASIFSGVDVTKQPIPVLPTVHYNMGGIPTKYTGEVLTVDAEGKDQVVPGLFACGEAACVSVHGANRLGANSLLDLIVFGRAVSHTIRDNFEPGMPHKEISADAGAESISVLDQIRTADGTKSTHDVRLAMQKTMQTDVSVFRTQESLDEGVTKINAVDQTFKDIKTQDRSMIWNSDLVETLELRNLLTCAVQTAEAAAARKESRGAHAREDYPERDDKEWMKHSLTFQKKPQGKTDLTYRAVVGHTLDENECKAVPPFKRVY

Consider `O=C(Nc1ccccc1Nc1ccccc1)c1ccc(Cl)nc1` [3f, 6-chloro-N-(2-(phenylamino)phenyl)nicotinamide], for which the IC50 worked out at 17.3 µM.
On to `Cc1nc(C(F)(F)F)c(C(=O)Nc2c(Br)cc(OC(F)(F)F)cc2Br)s1` [thifluzamide], for which the IC50 was 14.4 µM.
